Measured values from US6803232B1, “NPY-Y7 receptor gene” (The Garvan Institute of Medical Research, priority 1998, dated 2004).

system: human NPY-Y7 receptors; assay: Competitive displacement of [125I]PYY on membranes of COSm6 cells transiently expressing human NPY-Y7 receptors; type: binding; conditions: COS-6 or HEX (293) cells transiently expressing recombinant Y7 receptor protein; FIG. 2
Procedure: The results were obtained through competitive displacement of [^125I]PYY on membranes of COSm6 cells transiently expressing human NPY-Y7 receptors. Membranes were incubated with [^125I]PYY (50 pM) and increasing concentrations of peptide competitors. Data are representative of a single experiment with each point measured in triplicate.
These experiments were conducted using COS-6 or HEX (293) cells transiently expressing recombinant Y7 receptor protein.
pcDNA3.1-hy7 cDNA was transiently transfected into the COSm6 cell line using FUGENE and […] of DNA/106 cells. The COSm6 cells were grown in Dulbecco's modified Eagles medium supplemented with 2 mM glutamine and 10% fetal calf serum, in 5% CO2 at 37° C. Membranes were harvested with COSm6 cells 72hr post-transfection. Adherent cells were washed twice in ice-cold phosphate buffered saline and lysed using a glass homogeniser in ice-cold hypotonic buffer (50 mM Tris-HCl, pH 7.4, 0.1% bacitracin). Membranes were pelleted by high speed centrifugation (30,000×g, 15 min 4° C.), homogeniser again in ice-cold hypotonic buffer and collected again by high speed centrifugation (30,000×g, 15 min, 4° C.). […] Samples were incubated at room temperature for 2hr. Incubations were terminated by centrifugation (4 min) and pellets collected. Radioactivity was measured for 1 min in a g counter.

Substance | affinity of the protein encoded by the hy7 cDNA (radio-ligand binding)
PYY: peptide YY, 36 amino acids, member of the pancreatic polypeptide family | highest affinity

same assay, conditions: inhibition of [125I]PYY (50 pM) binding, COSm6 membranes, single experiment, triplicate points

Substance | rank of potency for the Y7 receptor
(Leu31, Pro34)NPY: NPY-related peptide competitor, NPY analogue with Leu31 and Pro34 | PYY>NPY>[2-36]PYY>[3-36]NPY>[13-36]NPY>>(Leu31, Pro34)NPY>PP
[3-36]NPY: NPY-related peptide competitor, NPY fragment 3-36 | PYY>NPY>[2-36]PYY>[3-36]NPY>[13-36]NPY>>(Leu31, Pro34)NPY>PP
PYY: peptide YY, 36 amino acids, member of the pancreatic polypeptide family | PYY>NPY>[2-36]PYY>[3-36]NPY>[13-36]NPY>>(Leu31, Pro34)NPY>PP
[13-36]NPY: NPY-related peptide competitor, NPY fragment 13-36 | PYY>NPY>[2-36]PYY>[3-36]NPY>[13-36]NPY>>(Leu31, Pro34)NPY>PP
[2-36]PYY: NPY-related peptide competitor, PYY fragment 2-36 | PYY>NPY>[2-36]PYY>[3-36]NPY>[13-36]NPY>>(Leu31, Pro34)NPY>PP
Neuropeptide Y [NPY] | PYY>NPY>[2-36]PYY>[3-36]NPY>[13-36]NPY>>(Leu31, Pro34)NPY>PP
